Assay results published in article PMC5077990, “P53 activation inhibits all types of hematopoietic progenitors and all stages of megakaryopoiesis” (Oncotarget, 2016).
Where two headings read alike, the source gives them in different places.

Legend:
Assay type in all cases: cell-based, human
[1] = tested on: BFU-E (Burst Forming Unit-Erythroid) progenitors from CD34+ cells; assay: Colony assay in methylcellulose, BFU-E; details: for IC50: Homo sapiens
Protocol: CD34^+cells were obtained from leukapheresis samples after mobilization of donors after informed consent in agreement with our Institute Ethic Committee (Assistance Publique des Hôpitaux de Paris) and in accordance with the Declaration of Helsinki. CD34^+cells were isolated by a positive selection using an immunomagnetic cell sorting system (AutoMacs; Miltenyi Biotec, Bergisch Gladbach, Germany). 500 to 1000 normal CD34^+cells were plated either in 1% methylcellulose assay (StemCells technologies, Vancouver, Canada) to quantify erythroid (BFU-E) and granulo-monocytic (CFU-GM) progenitors or in serum-free fibrin clot assay for quantification of MK progenitors (CFU-MK) in the absence or presence of various concentration of SAR405838 or MI-219. Cultures in methylcellulose were stimulated by addition of human recombinant growth factors: G-CSF (20 ng/mL), IL-3 (10 ng/mL) SCF (25 ng/mL, Biovitrum AB, Stockholm, Sweden), IL-6 (10 ng/mL), FLT3 (10 ng/mL) and human EPO (1 U/mL). Cultures in fibrin clot were stimulated with 10 ng/mL TPO (Kirin Brewery, Tokyo, Japan) and 25 ng/mL SCF. BFU-E and CFU-GM colonies were enumerated at day 14 of culture. CFU-MK colonies were enumerated at day 12 after labeling by an indirect immuno-alkaline phosphatase staining technique using an anti-CD41a monoclonal antibody (MoAb; Becton Dickinson, le Pont de Claix, France; clone HIP8), as previously described.

[2] = tested on: p53 target genes (MDM2, PUMA, P21) in CD34+ cells; assay: qRT-PCR of p53 target genes in CD34+ cells; details: CD34+ cells cultured one day with TPO and SCF; doses 0.75 M, 1.5 μM, 2.5 μM and 5 μM
Protocol: To investigate the impact of p53 stabilization on hematopoietic progenitors, CD34^+ cells were cultured for one day in serum-free medium with TPO and SCF in the presence of the MDM2 antagonist SAR405838 before quantifying the p53 target genes by qRT-PCR.
Figure 1 Effects of SAR405838 on CD34+ progenitors A. Dose-effect of SAR405838 on p53 target genes by qRT-PCR. CD34^+ cells were treated or not with SAR405838 at various doses ([…], 1.5 μM, 2.5 μM and 5 μM). The expression of P53 and its targets (MDM2, PUMA, P21) were quantified by qRT-PCR related to PPIA. Results are the mean ± SEM of 2 independent experiments in duplicate. B, C, D. Cells were seeded in methylcellulose (B, C) or in fibrin clot (D) in the presence of MI-219 or SAR405838 to assay the number of BFU-E, CFU-GM and CFU-MK progenitors. Results are presented as percentage compared to control. Results represent the mean of 3 experiments for BFU-E and CFU-GM and 3 experiments for CFU-MK made in triplicate. * represents statistical significance using student t test (* P<0.05; **P<0.01; ***P<0.001).
(§1) PCRs were carried out in the ABI Prism GeneAmp 5700 (Perkin-Elmer) using the Power SYBR-Green PCR Master Mix (ABI) containing the specific primers. The expression levels of all genes were calculated relatively to HPRT or to PPIA housekeeping gene.

[3] = tested on: p53 pathway in megakaryocytes (MKs); assay: p53 pathway proteins and transcripts in MKs (western-blot, qRT-PCR); details: day 11-MKs, 1 μM, 24 hours (legend: 5 μM), compared to 1 μM MI-219 or untreated control
Protocol: We also explored the effects of p53 stabilization at a later stage of megakaryocytic differentiation. […] Day 7-MKs were treated with 5 μM Nutlin 3a for 24 or 48 hours, which led to an increase in p53, p21, BAX, BCL2 and BCL-XL levels, confirming a functional p53 activity (Figure 6A). […] Similar results were found with day 6-megakaryoblasts treated with two doses of SAR405838 for 72 hours (Figure 6D/6E) without any major effect on the percentage of CD41^+ cells (Figure 6F). […] As shown in Figure 6D/6E, at the dose of 0.5 μM the SAR405838 induced a 50% decreased in the number of viable cells while the apoptotic cells reached 50% of the total cells. We checked if the effect of SAR405838 on MKs could be reverted by the addition of high TPO doses. CD34^+ progenitors were cultured in serum-free medium supplemented with SCF and low dose of TPO (1 ng/mL) for 6 days. Day 6-megakaryoblasts were then treated with 1.5 μM of SAR405838 for 48 hours and various doses of TPO.
In parallel, the expression of P53, BAK, BCL2L1, NOXA, PUMA, BAX, P21 and P53 were quantified by qRT-PCR related to HPRT. C. […] (n=3). […]
as §1
Proteins were quantified by Image J software.

[4] = tested on: Day 6 megakaryoblasts (ploidization); assay: MK ploidy by flow cytometry (CD41/CD42/vital Hoechst staining); details: day 6 megakaryoblasts treated 72 hours, analysed day 9; SAR405838 at 1 μM; untreated control 4.4 N
Protocol: First, we investigated if MDM2 inhibitors affect MK ploidization. SAR405838 induced a significant reduction in the mean ploidy (3.0 N at the dose of 1 μM versus 4.4 N for untreated control or for MI-219 treatment) (Supplementary Figure S1). page 1: P53 activation inhibits all types of hematopoietic progenitors and all stages of megakaryopoiesis SUPPLEMENTARY FIGURE Supplementary Figure S1: Effect of SAR405838 on polyploidization. Day 6 megakaryoblasts were treated for 72 hours with various doses of MI-219 or SAR405838. At day 9, ploidy was analyzed by flow cytometry using a CD41/CD42/vital Hoechst staining. N represents the mean ploidy. As shown, SAR405838 induced a significant reduction in the mean ploidy (3.0N at the dose of 1μM versus 4.4N for control or for MI-219 treatment). The Figure illustrates a representative experiment in triplicate. Two other experiments in triplicate gave similar results. […]

SMILES: CC(C)(C)C[C@@H]1N[C@@H](C(=O)N[C@H]2CC[C@H](O)CC2)[C@H](c2cccc(Cl)c2F)[C@]12C(=O)Nc1cc(Cl)ccc12 [SAR405838]
- IC50 ([1]; 72 h, CD34+ cells treated 3 days, washed, then plated in colony assay, read-out: IC50, reduction of BFU-E progenitors): ~2 µM
- IC50 ([1]; CD34+ cells seeded in methylcellulose in the presence of compound, compared to untreated control, read-out: dose inducing a 50% reduction of BFU-E numbers): 0.5 to 1 µM
- higher sensitivity of CD34+CD38- progenitors than CD34+CD38+ progenitors (BFU-E) ([1]; sorted CD34+CD38- immature vs CD34+CD38+ committed cells): 2 fold
- MDM2, PUMA and P21 expression (qRT-PCR related to PPIA) [2]: dose-dependent effect
- P21, BAX, PUMA and BCL2L1 transcripts (qRT-PCR related to HPRT) [3]: significant increase
- mean ploidy [4]: 3.0 N
